Measurements as given in PubChem BioAssay AID256 (DTP/NCI, 2004).
Values joined by “and” are separate entries in the source; they are usually repeats but may differ in a detail not shown here. Identical values can stand only once. Toxic doses and inconclusive results are not listed.

Tested on: CD2F1 mice, L1210 leukemia ip, survival T/C
Test: NCI In Vivo Anticancer Drug Screen. Data for tumor model L1210 Leukemia (intraperitoneal) in CD2F1 (CDF1) mice
Settings: higher = longer survival
Outline: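 Implant tumor; dose compound or vehicle; measure endpoint in both groups; report treated divided by control.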

[1] = endpoint: mean survival time, dose: 100.0 mg/kg/injection, schedule: Q04DX003 (ip), vehicle: saline with Tween-80
[2] = endpoint: mean survival time, dose: 200.0 mg/kg/injection, schedule: Q04DX003 (ip), vehicle: saline with Tween-80
[3] = endpoint: mean survival time, dose: 400.0 mg/kg/injection, schedule: Q04DX003 (ip), vehicle: saline with Tween-80
[4] = endpoint: mean survival time, dose: 100.0 mg/kg/injection, schedule: Q01DX009 (ip), vehicle: saline with Tween-80
[5] = endpoint: mean survival time, dose: 200.0 mg/kg/injection, schedule: Q01DX009 (ip), vehicle: saline with Tween-80
[6] = endpoint: mean survival time, dose: 75.0 mg/kg/injection, schedule: Q01DX001 (ip), vehicle: saline
[7] = endpoint: mean survival time, dose: 400.0 mg/kg/injection, schedule: Q01DX009 (ip), vehicle: saline with Tween-80

O=C(O)C(=O)Cc1ccc2c(c1)OCO2 was tested, and the T/C (endpoint: mean survival time, dose: 100.0 mg/kg/injection, schedule: Q01DX001 (ip), vehicle: saline) was 98 % of control, the T/C (endpoint: mean survival time, dose: 200.0 mg/kg/injection, schedule: Q01DX001 (ip), vehicle: saline) was 104 % of control and the T/C (endpoint: mean survival time, dose: 400.0 mg/kg/injection, schedule: Q01DX001 (ip), vehicle: saline) was 98 % of control.
In the case of O=C(c1ccc([N+](=O)[O-])cc1)C(Br)C(Br)c1ccncc1 (stereo unspecified), the T/C [1] is reported as 95 % of control, the T/C [2] is reported as 97 % of control and the T/C [3] is reported as 103 % of control.
For O=C(O)c1ccccc1NCc1ccccc1, the T/C [1] was 100 % of control, the T/C [2] was 96 % of control and the T/C [3] was 87 % of control.
O=C(O)c1ccc(C(=O)O)c(C(=O)O)c1.[NH-]C1CCCCCC1[NH-].[Pt+2] was tested, and the T/C (endpoint: mean survival time, dose: 3.75 mg/kg/injection, schedule: Q04DX003 (ip), vehicle: sodium bicarbonate) was 159 % of control, the T/C (endpoint: mean survival time, dose: 7.5 mg/kg/injection, schedule: Q04DX003 (ip), vehicle: sodium bicarbonate) was 156 % of control and 250 % of control and the T/C (endpoint: mean survival time, dose: 15.0 mg/kg/injection, schedule: Q04DX003 (ip), vehicle: sodium bicarbonate) was 200 % of control and 219 % of control. The T/C (endpoint: mean survival time, dose: 30.0 mg/kg/injection, schedule: Q04DX003 (ip), vehicle: sodium bicarbonate) was 105 % of control.
For Cc1nc(N=C(N)N)nc2ccc(Cl)cc12, the T/C (endpoint: mean survival time, dose: 18.8 mg/kg/injection, schedule: Q01DX009 (ip), vehicle: saline) was 97 % of control.
In the case of CC(C)(O)CCNc1ncnc2c1ncn2C1OC(CO)C(O)C1O (stereo unspecified), the T/C (endpoint: mean survival time, dose: 12.5 mg/kg/injection, schedule: Q01DX005 (ip), vehicle: water) is reported as 101 % of control, the T/C (endpoint: mean survival time, dose: 25.0 mg/kg/injection, schedule: Q01DX005 (ip), vehicle: water) is reported as 95 % of control and 103 % of control and the T/C (endpoint: mean survival time, dose: 50.0 mg/kg/injection, schedule: Q01DX005 (ip), vehicle: water) is reported as 124 % of control and 103 % of control. The T/C (endpoint: mean survival time, dose: 100.0 mg/kg/injection, schedule: Q01DX005 (ip), vehicle: water) was 108 % of control.
With CCOCCC(=O)NCc1ccccc1 the T/C [1] was 100 % of control, the T/C [2] was 98 % of control and the T/C [3] was 102 % of control.
With CSc1nc(NC2OCC(O)C(O)C2O)cc(=O)[nH]1 (stereo unspecified) the T/C (endpoint: median survival time, dose: 12.5 mg/kg/injection, schedule: Q01DX005 (ip), vehicle: saline) was 102 % of control, the T/C (endpoint: median survival time, dose: 25.0 mg/kg/injection, schedule: Q01DX005 (ip), vehicle: saline) was 98 % of control and the T/C (endpoint: median survival time, dose: 50.0 mg/kg/injection, schedule: Q01DX005 (ip), vehicle: saline) was 100 % of control. The T/C (endpoint: median survival time, dose: 100.0 mg/kg/injection, schedule: Q01DX005 (ip), vehicle: saline) was 98 % of control and the T/C (endpoint: median survival time, dose: 200.0 mg/kg/injection, schedule: Q01DX005 (ip), vehicle: saline) was 100 % of control.
CCCCS(CCCC)=NS(=O)(=O)c1ccc(C)cc1 was tested, and the T/C (endpoint: mean survival time, dose: 50.0 mg/kg/injection, schedule: Q01DX009 (ip), vehicle: Klucel (hydroxypropylcellulose) (HPC)) was 90 % of control, the T/C (endpoint: mean survival time, dose: 100.0 mg/kg/injection, schedule: Q01DX009 (ip), vehicle: Klucel (hydroxypropylcellulose) (HPC)) was 94 % of control and the T/C (endpoint: mean survival time, dose: 200.0 mg/kg/injection, schedule: Q01DX009 (ip), vehicle: Klucel (hydroxypropylcellulose) (HPC)) was 90 % of control.
CC(C)C(=NO)C(C)C was tested, and the T/C [4] was 98 % of control, the T/C [1] was 101 % of control and the T/C [5] was 93 % of control. The T/C [2] was 93 % of control and the T/C [3] was 91 % of control.
With CCOC(=O)C(CCC(O)C#N)(CC(C)=O)C(=O)OCC (stereo unspecified) the T/C [6] was 100 % of control.
In the case of FC(F)(F)C1(F)N(Cc2ccccc2)N=NC1(F)F (stereo unspecified), the T/C [6] is reported as 96 % of control, the T/C (endpoint: mean survival time, dose: 150.0 mg/kg/injection, schedule: Q01DX001 (ip), vehicle: saline) is reported as 98 % of control and the T/C (endpoint: mean survival time, dose: 300.0 mg/kg/injection, schedule: Q01DX001 (ip), vehicle: saline) is reported as 96 % of control.
For CCCCSc1ncn(C)c1[N+](=O)[O-], the T/C (endpoint: mean survival time, dose: 50.0 mg/kg/injection, schedule: Q01DX001 (ip), vehicle: saline with Tween-80) was 101 % of control, the T/C (endpoint: mean survival time, dose: 100.0 mg/kg/injection, schedule: Q01DX001 (ip), vehicle: saline with Tween-80) was 103 % of control and the T/C (endpoint: mean survival time, dose: 200.0 mg/kg/injection, schedule: Q01DX001 (ip), vehicle: saline with Tween-80) was 101 % of control.
For O=S1(=O)C2CCC(C2)C1Cl (stereo unspecified), the T/C [1] was 88 % of control.
With CCN(C(=O)c1ccc(C(=O)N(CC)c2ccccc2)cc1)c1ccccc1 the T/C [4] was 95 % of control, the T/C [5] was 101 % of control and the T/C [7] was 90 % of control.
With COc1cc(Cl)ccc1NC(=O)OCCOc1ccc(C(C)(C)C)cc1 the T/C (endpoint: mean survival time, dose: 50.0 mg/kg/injection, schedule: Q01DX009 (ip), vehicle: saline with Tween-80) was 103 % of control, the T/C [4] was 95 % of control and the T/C [5] was 95 % of control.
For COc1ccc(Nc2ccnc3cc(Cl)ccc23)cc1CN(CCCl)CCCl, the T/C (endpoint: mean survival time, dose: 6.25 mg/kg/injection, schedule: Q01DX009 (ip), vehicle: saline) was 117 % of control and the T/C (endpoint: mean survival time, dose: 25.0 mg/kg/injection, schedule: Q01DX009 (ip), vehicle: saline) was 88 % of control.
OCCc1cc[nH]c1 was tested, and the T/C [4] was 104 % of control, the T/C [1] was 95 % of control and the T/C [5] was 101 % of control. For the same compound, the T/C [2] was 97 % of control, the T/C [7] was 113 % of control and the T/C [3] was 97 % of control.
